These results are taken from patent publication US6150359A, “Naphthyridinones for inhibiting protein tyrosine kinase and cell cycle kinase mediated cellular proliferation” (Warner-Lambert Company, priority 2000, dated 2000).

The target in one experiment is T1, c-Src (Homo sapiens, UniProt P12931).
T1 construct: made in house; host or cells: baculovirus infected insect cells
Nature of the experiment: c-Src kinase assay, 32P incorporation into polyglutamate-tyrosine. The experiment is classed as biochemical. Particulars: 5 μM ATP. Here is the method:
Other Kinases. c-Src kinase is purified from baculovirus infected insect cell lysates using an antipeptide monoclonal antibody directed against the N-terminal 2-17 amino acids as described previously by Fry, et al., Anticancer Drug Design, 1994;9:331-351. Protein kinase C (PKC.) is obtained as a rat brain preparation from Promega.
c-Src. The antibody, covalently linked to 0.65-μm latex beads, is added to a suspension of insect cell lysis buffer comprised of 150 mM NaCl, 50 mM Tris pH 7.5, 1 mM DTT, 1% NP-40, 2 mM EGTA, 1 mM sodium vanadate, 1 mM PMSF, 1 μg/mL each of leupeptin, pepstatin, and aprotinin. Insect cell lysate containing the c-Src protein is incubated with these beads for 3 to 4 hours at 4° C. with rotation. At the end of the lysate incubation, the beads are rinsed three times in lysis buffer, resuspended in lysis buffer containing 10% glycerol, and frozen. These latex beads are thawed, rinsed three times in assay buffer which is comprised of 40 mM tris pH 7.5, 5 mM magnesium chloride, and suspended in the same buffer. In a Millipore 96-well plate with a 0.65 μm polyvinylidine membrane bottom are added the reaction components: 10-μL c-Src beads, 10 μL of 2.5 mg/mL polyglutamate-tyrosine substrate, 5 μM ATP containing 0.2 μCi labeled ^32 P-ATP, 5 μL DMSO containing inhibitors or as a solvent control, and buffer to make the final volume 125 μL. The reaction is started at room temperature by addition of the ATP and quenched 10 minutes later by the addition of 125 μL of 30% TCA, 0.1 M sodium pyrophosphate for 15 minutes on ice. The plate is then filtered and the wells washed with two 250-μL aliquots of 15% TCA, 0.1 M pyrophosphate. The filters are punched, counted in a liquid scintillation counter, and the data examined for inhibitory activity in comparison to a known inhibitor such as erbstatin. The method is described more fully in J. Med. Chem., 1994;37:598-609.

Experiment [1] concerns the target T2, FGFr (human FGF-1 (flg) receptor tyrosine kinase) (Homo sapiens, UniProt P11362).
T2 construct: PCR primers are designed to amplify a fragment of DNA that codes for the intracellular tyrosine kinase domain; made in house; host or cells: Sf9 insect cells (baculovirus), cell lysate
Nature of the experiment: FGFr tyrosine kinase assay, 32P incorporation into glutamate-tyrosine copolymer. The experiment is classed as biochemical. The conditions noted are these: 50 μM ATP; read-out: FGFr IC50. Here is the method: (§1) Platelet Derived Growth Factor Receptor (PDGFr) and Fibroblast Growth Factor Receptor (FGFr). Full length cDNAs for the mouse PDGF-β and human FGF-1 (flg) receptor tyrosine kinases were obtained from J. Escobedo and are prepared as described in J. Biol. Chem., 1991;262:1482-1487. PCR primers are designed to amplify a fragment of DNA that codes for the intracellular tyrosine kinase domain. The fragment is melded into a baculovirus vector, cotransfected with AcMNPV DNA, and the recombinant virus isolated. SF9 insect cells are infected with the virus to overexpress the protein, and the cell lysate is used for the assay.
(§2) PDGFr and FGFr. […] Briefly, to each well is added 82.5 μL of incubation buffer containing 25 mM Hepes (pH 7.0), 150 mM NaCl, 0.1% Triton X-100, 0.2 mM PMSF, 0.2 mM sodium vanadate, 10 mM manganese chloride, and 750 μg/mL of poly (4:1) glutamate-tyrosine followed by 2.5 μL of inhibitor and 5 μL of enzyme lysate (7.5 μg/μL FGFR-TK or 6.0 μg/μL PDGFR-TK) to initiate the reaction. Following a 10 minute incubation at 25° C., 10 μL of [γ^32 P]ATP (0.4 μCi plus 50 μM ATP) is added to each well, and samples are incubated for an additional 10 minutes at 25° C. The reaction is terminated by the addition of 100 μL of 30% trichloroacetic acid (TCA) containing 20 mM sodium pyrophosphate and precipitation of material onto glass fiber filter mats (Wallac). […] Nonspecific activity is defined as radioactivity retained on the filters following incubation of samples with buffer alone; (no enzyme). Specific enzymatic activity is defined as total activity (enzyme plus buffer) minus nonspecific activity.

For experiment [2], the target named is T3, PDGFr (mouse PDGF-β receptor tyrosine kinase) (Mus musculus, UniProt P05622).
T3 construct: PCR primers are designed to amplify a fragment of DNA that codes for the intracellular tyrosine kinase domain; made in house; host or cells: Sf9 insect cells (baculovirus), cell lysate
Put plainly: PDGFr tyrosine kinase assay, 32P incorporation into glutamate-tyrosine copolymer. The conditions noted are these: 50 μM ATP. It counts as biochemical. Here is the method: as §1, §2

The next experiment has as its target cdk4/cyclinD (Homo sapiens, UniProt P11802). Put plainly: Cyclin-Dependent Kinase 4 (cdk4/cyclinD) Assay. It counts as biochemical. The conditions noted are these: 25 μM ATP, retinoblastoma substrate. Here is the method:
Cyclin-Dependent Kinase 4 (cdk4/cyclinD) Assay
Enzyme assays for IC50 determinations and kinetic evaluation were performed in 96-well filter plates (Millipore MADVN6550). The total volume was 0.1 mL containing a final concentration of 20 mM TRIS (tris[hydroxymethyl]aminomethane), at pH 7.4, 50 mM NaCl, 1 mM dithiothreitol, 10 mM MgCl2, 25 μM ATP containing 0.25 μCi of [^32 P]ATP, 20 ng of cdk4/cyclinD, 1 μg of retinoblastoma, and appropriate dilutions of a compound of the present invention. All components except the ATP were added to the wells, and the plate was placed on a plate mixer for 2 minutes. The reaction was started by adding [^32 P]ATP and the plate was incubated at 25° C. for 15 minutes. The reaction was terminated by addition of 0.1 mL of 20% trichloroacetic acid (TCA). The plate was kept at 4° C. for at least 1 hour to allow the substrate to precipitate. The wells were then washed 5 times with 0.2 mL of 10% TCA and ^32 P incorporation was determined with a beta plate counter (Wallace Inc., Gaithersburg, Md.).

The next experiment deals with cdk2/cyclinE (Homo sapiens, UniProt P24941). Nature of the experiment: Cyclin-Dependent Kinase Assay, cdk2/cyclinE. It counts as biochemical. The conditions noted are these: retinoblastoma substrate. Here is the method: (§3) Cyclin-Dependent Kinase Assays (cdk2/cyclinE, cdk2/cyclinA, cdkl/cyclinB)
(§4) All components except the ATP were added to the wells, and the plate was placed on a plate mixer for 2 minutes. The reaction was begun by addition of [^32 P]ATP, and the plate was incubated at 25° C. for 15 minutes. The reaction was terminated by addition of 0.1 mL of 20% TCA. The plate was kept at 4° C. for least 1 hour to allow the substrate to precipitate. The wells were then washed 5 times with 0.2 mL of 10% TCA and ^32 P incorporation determined with a beta plate counter (Wallace Inc., Gaithersburg, Md.).

A further experiment deals with cdk2/cyclinA (Homo sapiens, UniProt P24941). Nature of the experiment: Cyclin-Dependent Kinase Assay, cdk2/cyclinA. Particulars: 12 mM ATP, retinoblastoma substrate. It counts as biochemical. Here is the method: as §3, §4
The next experiment deals with cdk1/cyclinB (Homo sapiens, UniProt P06493). Put plainly: Cyclin-Dependent Kinase Assay, cdk1/cyclinB. The experiment is classed as biochemical. The conditions noted are these: 12 mM ATP, retinoblastoma substrate. Here is the method:
as §3, §4

For a further experiment, the system named is cdk2. The conditions noted are these: cited from earlier work.
For a further experiment, the system named is human tumor cell lines. Particulars: approximately 60 NCI human tumor cell lines; cited from earlier work.
For experiment [3], the system named is breast and lung cancer cells. Particulars: several types of breast and lung cancer cells; cited from earlier work.
The test system of another experiment is cdk4. The conditions noted are these: cited from earlier work.

T1 sequence (P12931 whole entry, species assumed): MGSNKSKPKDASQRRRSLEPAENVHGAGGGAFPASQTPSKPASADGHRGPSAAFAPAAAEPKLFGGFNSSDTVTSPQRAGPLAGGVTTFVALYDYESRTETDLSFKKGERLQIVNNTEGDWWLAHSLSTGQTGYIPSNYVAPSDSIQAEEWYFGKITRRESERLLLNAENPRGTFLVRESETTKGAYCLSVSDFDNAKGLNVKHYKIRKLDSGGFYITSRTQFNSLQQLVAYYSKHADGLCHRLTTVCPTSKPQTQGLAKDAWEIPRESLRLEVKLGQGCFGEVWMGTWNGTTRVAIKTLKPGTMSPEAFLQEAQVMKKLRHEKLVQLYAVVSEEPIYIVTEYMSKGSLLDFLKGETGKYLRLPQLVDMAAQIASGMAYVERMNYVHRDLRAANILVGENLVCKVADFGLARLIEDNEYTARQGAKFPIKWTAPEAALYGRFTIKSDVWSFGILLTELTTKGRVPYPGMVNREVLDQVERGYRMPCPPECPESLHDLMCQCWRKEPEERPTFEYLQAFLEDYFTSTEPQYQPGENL
T3 sequence (P05622 599-961 limits assumed): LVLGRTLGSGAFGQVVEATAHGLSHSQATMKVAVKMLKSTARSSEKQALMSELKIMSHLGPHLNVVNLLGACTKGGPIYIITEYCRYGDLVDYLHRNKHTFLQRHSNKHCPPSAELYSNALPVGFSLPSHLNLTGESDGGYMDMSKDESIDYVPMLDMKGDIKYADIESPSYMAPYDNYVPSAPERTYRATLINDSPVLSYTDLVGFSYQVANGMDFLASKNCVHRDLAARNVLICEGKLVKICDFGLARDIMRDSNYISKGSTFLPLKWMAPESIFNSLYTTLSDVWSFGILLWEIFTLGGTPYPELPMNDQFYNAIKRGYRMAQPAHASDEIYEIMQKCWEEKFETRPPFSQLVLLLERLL
Sequence of cdk4/cyclinD (P11802 whole entry, species assumed): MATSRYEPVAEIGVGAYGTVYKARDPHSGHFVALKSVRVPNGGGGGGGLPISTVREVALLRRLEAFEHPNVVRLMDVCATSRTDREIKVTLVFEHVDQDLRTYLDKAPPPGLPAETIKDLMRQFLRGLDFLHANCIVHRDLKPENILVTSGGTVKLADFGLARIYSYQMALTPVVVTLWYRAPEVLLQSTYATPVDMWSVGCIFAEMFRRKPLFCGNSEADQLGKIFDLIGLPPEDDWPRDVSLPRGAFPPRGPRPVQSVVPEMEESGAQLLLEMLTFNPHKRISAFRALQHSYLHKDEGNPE
Sequence of cdk4/cyclinD (P24385 whole entry partner, species assumed): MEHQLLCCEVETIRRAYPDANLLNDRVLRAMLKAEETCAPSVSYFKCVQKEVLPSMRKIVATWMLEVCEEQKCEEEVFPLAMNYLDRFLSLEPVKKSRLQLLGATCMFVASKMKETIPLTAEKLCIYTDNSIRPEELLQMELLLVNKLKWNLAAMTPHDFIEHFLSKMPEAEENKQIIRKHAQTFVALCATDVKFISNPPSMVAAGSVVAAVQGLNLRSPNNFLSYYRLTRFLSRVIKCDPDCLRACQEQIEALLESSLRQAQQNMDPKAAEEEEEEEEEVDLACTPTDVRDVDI
Sequence of cdk1/cyclinB (P06493 whole entry, species assumed): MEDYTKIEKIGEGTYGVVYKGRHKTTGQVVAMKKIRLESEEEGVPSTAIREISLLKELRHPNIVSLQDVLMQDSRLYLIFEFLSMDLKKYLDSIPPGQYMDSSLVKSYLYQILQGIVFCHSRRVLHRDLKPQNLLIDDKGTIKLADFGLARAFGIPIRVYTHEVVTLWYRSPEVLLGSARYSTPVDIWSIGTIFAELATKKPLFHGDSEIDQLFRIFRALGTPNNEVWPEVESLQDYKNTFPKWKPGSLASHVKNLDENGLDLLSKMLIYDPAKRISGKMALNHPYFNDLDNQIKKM
Sequence of cdk1/cyclinB (P14635 whole entry partner, species assumed): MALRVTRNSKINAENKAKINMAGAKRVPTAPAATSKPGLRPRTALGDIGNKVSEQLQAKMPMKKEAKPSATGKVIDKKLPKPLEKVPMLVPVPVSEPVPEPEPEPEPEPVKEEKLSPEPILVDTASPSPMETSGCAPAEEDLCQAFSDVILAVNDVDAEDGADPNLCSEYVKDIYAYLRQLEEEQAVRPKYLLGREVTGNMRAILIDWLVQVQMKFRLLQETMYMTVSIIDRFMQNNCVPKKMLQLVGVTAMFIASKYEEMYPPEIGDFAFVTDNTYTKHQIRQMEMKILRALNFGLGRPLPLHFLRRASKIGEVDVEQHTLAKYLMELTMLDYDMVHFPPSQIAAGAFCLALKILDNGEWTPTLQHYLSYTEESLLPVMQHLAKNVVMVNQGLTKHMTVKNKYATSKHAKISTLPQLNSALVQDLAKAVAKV
T2 sequence (P11362 478-767 limits assumed): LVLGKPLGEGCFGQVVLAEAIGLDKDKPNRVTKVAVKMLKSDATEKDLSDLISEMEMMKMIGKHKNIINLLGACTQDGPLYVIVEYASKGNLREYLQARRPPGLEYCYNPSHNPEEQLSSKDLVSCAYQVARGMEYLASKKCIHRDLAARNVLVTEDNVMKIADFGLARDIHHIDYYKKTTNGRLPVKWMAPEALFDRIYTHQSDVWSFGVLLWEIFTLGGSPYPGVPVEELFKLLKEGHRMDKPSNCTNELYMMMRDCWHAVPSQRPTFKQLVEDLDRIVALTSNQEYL

Take `CCn1c(=O)ccc2cnc(Nc3ccc(N4CCOCC4)cc3)cc21` [Example Z, 1-ethyl-7-(4-(morpholin-4-yl)phenylamino)-1H -[1,6]naphthyridin-2-one]: the IC50 against c-Src was 31 µM; in experiment [1], 5.7 µM; in experiment [2], above 50 µM; against cdk4/cyclinD, 1.35 µM; on cdk2/cyclinE, 3 µM; against cdk2/cyclinA it was 1.4 µM. Besides, the IC50 at cdk1/cyclinB was determined as 4 µM.
Turning to `Cn1cnc2c(NCc3ccccc3)nc(NCCO)nc21` [Olomoucine, 2-(hydroxyethylamine)-6-benzylamine-9-methylpurine], the “inhibition of cdk2” value with cdk2 is “potent inhibitor of cdk2 and cdk5”. Besides, the “inhibition of proliferation of human tumor cell lines” value in the experiment with human tumor cell lines is “shown to inhibit proliferation of approximately 60 different human tumor cell lines”.
With `CN1CC[C@H](c2c(O)cc(O)c3c(=O)cc(-c4ccccc4Cl)oc23)[C@H](O)C1` [flavopiridol], the “inhibition of breast and lung cancer cells” value in experiment [3] is “potent inhibitor of several types of breast and lung cancer cells”. Moreover, in the experiment with cdk2, the “inhibition of cdk2” value was “shown to inhibit cdk2 and cdk4”. Further, the “inhibition of cdk4” value in the experiment on cdk4 was “shown to inhibit cdk2 and cdk4”.

By IC50 is commonly meant the concentration that inhibits the measured activity by half.
